Measurements: the NIST ThermoML archive (doi:10.1021/acs.jced.8b01135)

Assay: xn = mol fraction of the nth substance listed
Details: 102 kPa, Liquid; for speed of sound: Frequency=3 MHz, Single path-length method; for mass density: Vibrating tube method; for viscosity: Concentric cylinders viscometry

CCCCCCCCC1CCCCC1 [octylcyclohexane] + CCCCCCCCCCCC
Details	mass density [kg/m3]	speed of sound [m/s]	viscosity [mPa·s]
288.15 K, x1 = 0.1	759.33	1326.2	–
288.15 K, x1 = 0.1998	766.24	1335.1	–
288.15 K, x1 = 0.3002	772.95	1344.1	–
288.15 K, x1 = 0.3998	779.63	1353.1	–
288.15 K, x1 = 0.4948	785.9	1361.6	–
288.15 K, x1 = 0.5997	792.69	1370.8	–
288.15 K, x1 = 0.6996	798.98	1379.4	–
288.15 K, x1 = 0.7999	805.34	1388.2	–
288.15 K, x1 = 0.9	811.48	1396.9	–
288.15 K, x1 = 1	817.58	1405.5	–
293.15 K, x1 = 0.1	755.72	1306.9	1.61
293.15 K, x1 = 0.1998	762.65	1315.8	1.74
293.15 K, x1 = 0.3002	769.38	1324.8	1.91
293.15 K, x1 = 0.3998	776.08	1333.9	2.05
293.15 K, x1 = 0.4948	782.36	1342.3	2.23
293.15 K, x1 = 0.5997	789.17	1351.6	2.44
293.15 K, x1 = 0.6996	795.48	1360.3	2.66
293.15 K, x1 = 0.7999	801.86	1369.1	2.91
293.15 K, x1 = 0.9	808.01	1377.8	3.2
293.15 K, x1 = 1	814.13	1386.4	3.52
298.15 K, x1 = 0.1	752.11	1287.6	–
298.15 K, x1 = 0.1998	759.06	1296.5	–
298.15 K, x1 = 0.3002	765.81	1305.5	–
298.15 K, x1 = 0.3998	772.53	1314.8	–
298.15 K, x1 = 0.4948	778.83	1323.4	–
298.15 K, x1 = 0.5997	785.65	1332.6	–
298.15 K, x1 = 0.6996	791.98	1341.2	–
298.15 K, x1 = 0.7999	798.37	1350.2	–
298.15 K, x1 = 0.9	804.53	1358.7	–
298.15 K, x1 = 1	810.67	1367.4	–
303.15 K, x1 = 0.1	748.5	1268.4	1.36
303.15 K, x1 = 0.1998	755.45	1277.3	1.47
303.15 K, x1 = 0.3002	762.24	1286.4	1.6
303.15 K, x1 = 0.3998	768.97	1295.9	1.69
303.15 K, x1 = 0.4948	775.29	1304.4	1.82
303.15 K, x1 = 0.5997	782.13	1313.8	1.98
303.15 K, x1 = 0.6996	788.47	1322.2	2.15
303.15 K, x1 = 0.7999	794.88	1331.4	2.34
303.15 K, x1 = 0.9	801.06	1339.9	2.55
303.15 K, x1 = 1	807.2	1348.6	2.79
313.15 K, x1 = 0.1	741.26	1230.7	1.16
313.15 K, x1 = 0.1998	748.26	1239.6	1.24
313.15 K, x1 = 0.3002	755.08	1248.9	1.33
313.15 K, x1 = 0.3998	761.84	1258.6	1.43
313.15 K, x1 = 0.4948	768.19	1267.1	1.52
313.15 K, x1 = 0.5997	775.07	1276.7	1.64
313.15 K, x1 = 0.6996	781.45	1285.1	1.77
313.15 K, x1 = 0.7999	787.89	1294.4	1.92
313.15 K, x1 = 0.9	794.1	1302.8	2.08
313.15 K, x1 = 1	800.28	1311.6	2.26
323.15 K, x1 = 0.1	734	1193.7	1
323.15 K, x1 = 0.1998	741.03	1202.7	1.07
323.15 K, x1 = 0.3002	747.89	1212.2	1.14
323.15 K, x1 = 0.3998	754.69	1221.9	1.23
323.15 K, x1 = 0.4948	761.08	1230.5	1.31
323.15 K, x1 = 0.5997	768	1240.1	1.38
323.15 K, x1 = 0.6996	774.42	1248.7	1.48
323.15 K, x1 = 0.7999	780.88	1258.1	1.6
323.15 K, x1 = 0.9	787.14	1266.6	1.73
323.15 K, x1 = 1	793.35	1275.5	1.87
333.15 K, x1 = 0.1	726.7	1157.6	0.865
333.15 K, x1 = 0.1998	733.78	1166.9	0.923
333.15 K, x1 = 0.3002	740.68	1176.4	0.984
333.15 K, x1 = 0.3998	747.52	1186	1.06
333.15 K, x1 = 0.4948	753.94	1194.8	1.12
333.15 K, x1 = 0.5997	760.9	1204.5	1.18
333.15 K, x1 = 0.6996	767.37	1213.3	1.26
333.15 K, x1 = 0.7999	773.86	1222.7	1.36
333.15 K, x1 = 0.9	780.16	1231.5	1.46
333.15 K, x1 = 1	786.41	1240.3	1.57
